Legend:
[1] = Flow of active ingredient in the human skin model according to Tanojo (in-vitro flux); type: in vitro ADME; settings: see Table 1
Excerpt: 3.2. Determination of the Flow of Active Ingredient in the Human Skin Model (a) experimental Design The determination of the fesoterodine flux through human skin was essentially performed as described in H. Tanojo et al, J. Control Rel. 45 (1997) 41-47, where instead of the silicone membrane a dialysis membrane was used [[…] Dialysemembran, type 10. 14, obtained from the company Dianorm, Munich, Germany, manufactured from neutral cellulose, exclusion size 5000 Da, thickness (dry): 25 μm; pretreatment in accordance with manufacturer information]. Human skin in a thickness of approximately 250 μm was obtained from the abdomen. A TTS with a surface of 2.545 cm^2 was applied on human skin of equal surface size, where the skin on the acceptor site lays on a […] membrane (FIG. 5). PBS (0.066 molar) was used as the acceptor phase at pH 6.2 and a temperature of 32±0.5° C. The experiments were performed over 72 hours with a 5 ml/hour flux, whereby samples were taken every 3 hours. At the times that the samples are taken, the releasing medium is replaced with fresh medium thermo stated at 32±0.5° C. and the amount of the released fesoterodine measured per HPLC. […]

[2] = Stabilization of fesoterodine in various matrices during storage (drop in concentration); type: physicochemical; settings: storage for 6 months at 5° C.
Protocol: While, for example, the free base of fesoterodine is decomposed as an oil after storage for 6 months at 5° C. to around 3-4% a drop in concentration cannot be established or can only be established essentially to a lesser extent when fesoterodine is incorporated in matrices, which contain polar components.

[3] = Stability at processing temperatures in the hot melt procedure; type: physicochemical; settings: processing temperatures up to 200° C.
Excerpt: In a hot melt procedure the polymers and any auxiliary agents are thermally melted and mixed without the use of any solvents and the meltings spread out on foil. The active ingredient is normally introduced directly into the liquid melt. […] The dynamic viscosity may be determined in the process as described in U.S. Pat. No. 5,328,696.
An alternative procedure that dispenses with the use of organic solvents is the hot melt procedure. In this procedure the polymer or the contact adhesive are melted at temperatures between 70 and 200° C., preferably between 90 and 160° C. and especially preferably between 100 and 150° C. and the active ingredient introduced into the homogenized matrix melt. After a brief homogenization the adhesive matrix that contains the active ingredient is cooled again so that the active ingredient is exposed to a thermal load in general for less than 5 minutes, if desired even for 4, 3, 2 or even for less than 1 minute. Following this the active ingredient is present in the solidified polymer melt. During the process the active ingredient is broadly shielded from critical environmental influences (light, oxygen).

[4] = Flow of active ingredient in the mouse skin model (in-vitro flux, horizontal diffusion cell); type: in vitro ADME; settings: salt introduced into the polymer layer, also with oleic acid etc. (Table 1)
Protocol: 3.1. Determination of the Flow of Active Ingredient in the Mouse Skin Model Belly and back skin in a thickness of approximately 120 to 150 μm was used in a horizontal diffusion cell for the flux measurements through mouse skin. Medium: phosphate buffer solution (0.066 molar) pH 6.2, 32° C. Release of the active ingredient was determined by HPLC.

CC(C)N(CCC(c1ccccc1)c1cc(CO)ccc1O)C(C)C (stereo not shown) [2-[3-(1,1-diisopropylamino)-1-phenylpropyl]-4-(hydroxymethyl)phenol]
rate of penetration through the human skin (in words) [1]: very low rate of penetration

CC(C)C(=O)Oc1ccc(CO)cc1[C@H](CCN(C(C)C)C(C)C)c1ccccc1 [fesoterodine, (R)-2-[3-(1,1-diisopropylamino)-1-phenylpropyl]-4-(hydroxymethyl)phenyl isobutyrate]
Decomposition of the free base stored as an oil [2]: 3-4% | stability at hot melt processing temperatures (in words) [3]: surprisingly stable

CC(C)C(=O)Oc1ccc(CO)cc1[C@H](CCN(C(C)C)C(C)C)c1ccccc1.O=C(O)/C=C/C(=O)O [fumarate salt from fesoterodine, (R)-2-[3-(1,1-diisopropylamino)-1-phenylpropyl]-4-(hydroxymethyl)phenyl isobutyrate hydrogen fumarate]
flux rates (in words) [4]: flux rates not sufficient for transdermal treatment

Reference: patent US7919117B2, “Transdermal delivery of (R)-3,3-diphenylpropylamin-monoestern” (UCB Pharma GmbH, priority 2003, dated 2011)
